According to patent US8377884B2, “Variants of C-type natriuretic peptides” (Biomarin Pharmaceutical Inc., priority 2007, dated 2013):
Entries after “also recorded” stand apart in the source; their conditions may differ. Where two headings read alike, the source gives them in different places. Bridge positions count the residues as written; N and C are the ends. Peptide text beside a SMILES is read from it. * marks the point of attachment. CH3O(CH2CH2O)11CH2CH2CO = COCCOCCOCCOCCOCCOCCOCCOCCOCCOCCOCCOCCC(=O)*

Experiments:
Recombinant human NEP = Recombinant human NEP (Homo sapiens, UniProt P08473); experiment: In vitro neutral endopeptidase (NEP) cleavage assay
Sequence of Recombinant human NEP (P08473 whole entry): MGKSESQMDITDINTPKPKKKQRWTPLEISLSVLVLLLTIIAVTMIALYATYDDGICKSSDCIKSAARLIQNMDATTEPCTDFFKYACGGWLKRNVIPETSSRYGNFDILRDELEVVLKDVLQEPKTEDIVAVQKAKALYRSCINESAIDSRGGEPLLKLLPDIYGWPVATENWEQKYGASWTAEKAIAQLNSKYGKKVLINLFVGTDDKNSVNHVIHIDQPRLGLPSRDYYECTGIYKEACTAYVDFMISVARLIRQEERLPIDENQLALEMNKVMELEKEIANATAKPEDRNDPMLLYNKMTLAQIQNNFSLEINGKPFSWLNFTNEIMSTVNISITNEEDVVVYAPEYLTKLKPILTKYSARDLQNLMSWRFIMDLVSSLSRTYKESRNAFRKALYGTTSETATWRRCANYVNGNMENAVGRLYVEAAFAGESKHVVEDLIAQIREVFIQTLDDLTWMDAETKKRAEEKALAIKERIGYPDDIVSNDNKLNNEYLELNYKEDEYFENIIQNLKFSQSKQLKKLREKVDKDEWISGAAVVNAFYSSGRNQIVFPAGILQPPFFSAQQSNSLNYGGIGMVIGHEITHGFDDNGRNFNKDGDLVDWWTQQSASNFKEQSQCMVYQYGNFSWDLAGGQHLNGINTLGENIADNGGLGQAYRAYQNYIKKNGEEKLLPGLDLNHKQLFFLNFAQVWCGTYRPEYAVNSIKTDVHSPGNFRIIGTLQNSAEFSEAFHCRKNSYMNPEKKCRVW
In short: (§1)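 Recombinant human NEP (1 ug/mL final) incubated with 100 uM CNP variant in 0.1 M Tris, pH 7, at 37° C for various times, then quenched with EDTA (10 mM final) and heat. Samples reduced and analysed by HPLC and mass spectrometry. Half-life derived from loss of intact variant over time.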

[1] = target: neutral endopeptidase (NEP) (Homo sapiens, UniProt P08473); experiment: as above; settings: human, pH 7
Sequence of neutral endopeptidase (NEP) (P08473 whole entry): as above
In short: as §1

NPR-B = target: T1, NPR-B (Mus musculus, UniProt Q6VVW5); experiment: Stimulation of cGMP production in NIH3T3 cells; assay type: cell-based, Murine; settings: for cGMP response relative to 1 uM CNP22 (%) at 0.01 µM: read-out: cGMP Response rel. to 1 uM CNP22, 10 nM; for cGMP response relative to 1 uM CNP22 (%) at 1 µM: read-out: cGMP Response rel. to 1 uM CNP22, 1 uM
T1 construct: Murine NIH3T3 cells express endogenously the CNP signaling receptor, NPR-B; endogenous in cells; host or cells: NIH3T3 (murine fibroblasts)
T1 sequence (Q6VVW5 17-1047): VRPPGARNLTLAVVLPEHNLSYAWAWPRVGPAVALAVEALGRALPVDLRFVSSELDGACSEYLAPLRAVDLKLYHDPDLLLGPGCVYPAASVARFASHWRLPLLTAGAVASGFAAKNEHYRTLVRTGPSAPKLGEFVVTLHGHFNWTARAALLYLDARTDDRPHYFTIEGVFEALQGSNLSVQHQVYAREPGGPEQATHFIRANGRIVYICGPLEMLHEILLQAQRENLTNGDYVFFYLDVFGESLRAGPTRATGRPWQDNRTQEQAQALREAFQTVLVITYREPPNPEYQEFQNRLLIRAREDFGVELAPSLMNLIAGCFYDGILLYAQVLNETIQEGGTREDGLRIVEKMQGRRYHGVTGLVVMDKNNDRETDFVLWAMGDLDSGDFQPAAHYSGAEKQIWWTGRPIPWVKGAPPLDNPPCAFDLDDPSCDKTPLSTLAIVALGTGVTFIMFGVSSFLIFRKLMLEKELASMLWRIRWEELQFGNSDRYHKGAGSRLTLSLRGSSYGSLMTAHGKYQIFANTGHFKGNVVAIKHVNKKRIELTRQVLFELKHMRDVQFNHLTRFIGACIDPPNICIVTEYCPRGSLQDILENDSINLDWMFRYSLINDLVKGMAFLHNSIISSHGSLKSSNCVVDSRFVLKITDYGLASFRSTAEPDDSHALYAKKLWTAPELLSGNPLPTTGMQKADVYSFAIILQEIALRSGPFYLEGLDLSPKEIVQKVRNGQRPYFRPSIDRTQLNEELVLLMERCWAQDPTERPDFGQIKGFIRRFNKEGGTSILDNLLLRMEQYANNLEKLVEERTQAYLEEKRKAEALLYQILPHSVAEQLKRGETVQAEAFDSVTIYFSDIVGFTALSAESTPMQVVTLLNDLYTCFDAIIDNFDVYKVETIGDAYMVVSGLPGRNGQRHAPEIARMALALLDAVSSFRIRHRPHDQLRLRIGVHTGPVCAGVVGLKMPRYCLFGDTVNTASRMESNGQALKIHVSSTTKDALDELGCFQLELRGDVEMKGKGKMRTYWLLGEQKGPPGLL

[2] = NIH3T3 cells, 10 nM natriuretic peptide, normalized to cell number and cGMP production with 1 uM wtCNP22
[3] = NIH3T3 cells, 1 uM natriuretic peptide, normalized to cell number and cGMP production with 1 uM wtCNP22

In the case of `CC[C@H](C)[C@@H]1NC(=O)[C@H](CCCNC(=N)N)NC(=O)[C@H](CC(=O)O)NC(=O)[C@H](CC(C)C)NC(=O)[C@H](CCCCN)NC(=O)[C@H](CC(C)C)NC(=O)CNC(=O)[C@H](Cc2ccccc2)NC(=O)[C@@H](NC(=O)CNC(=O)[C@H](CCCCN)NC(=O)[C@H](CO)NC(=O)[C@H](CC(C)C)NC(=O)CNC(=O)[C@H](CO)NC(=O)[C@@H]2CCCN2C(=O)[C@@H]2CCCN2C(=O)[C@H](CC(C)C)NC(=O)[C@@H](NC(=O)[C@H](Cc2ccc(O)cc2)NC(=O)[C@@H](NC(=O)[C@H](CCC(N)=O)NC(=O)[C@@H]2CCCN2C(=O)[C@H](CCC(=O)O)NC(=O)[C@H](CCCNC(=N)N)NC(=O)[C@@H]2CCCN2C(=O)[C@H](CCC(N)=O)NC(=O)CN)C(C)C)[C@@H](C)O)CSSC[C@@H](C(=O)O)NC(=O)CNC(=O)[C@H](CC(C)C)NC(=O)CNC(=O)[C@H](CO)NC(=O)[C@H](CCSC)NC(=O)[C@H](CO)NC(=O)CNC1=O` [CF] (H-GQPREPQVYTLPPSGLSKGCFGLKLDRIGSMSGLGC-OH; disulfide 20-36 (inferred); N-terminus and C-terminus assumed), the “resistance to NEP cleavage/degradation (in words)” value (Recombinant human NEP; in vitro NEP cleavage assay, assay period 160 minutes) is reported as “most resistant to NEP degradation; also recorded: much more resistant to NEP cleavage than CNP22”, the half-life at 100 uM [1] is reported as greater than 2.67 h and the cGMP response relative to 1 uM CNP22 (%) at 0.01 µM (NPR-B; NIH3T3, […]) is reported as 23 ± 9%. The cGMP response relative to 1 uM CNP22 (%) at 1 µM (NPR-B; NIH3T3, […]) was 72 ± 19%.
`CC[C@H](C)[C@@H]1NC(=O)[C@H](CCCNC(=N)N)NC(=O)[C@H](CC(=O)O)NC(=O)[C@H](CC(C)C)NC(=O)[C@H](CCCCN)NC(=O)[C@H](CC(C)C)NC(=O)CNC(=O)[C@H](Cc2ccccc2)NC(=O)[C@@H](NC(=O)CNC(=O)[C@H](CCCNC(=N)N)NC(=O)[C@H](CO)NC(=O)[C@H](CC(C)C)NC(=O)CNC(=O)[C@H](CCCNC(=N)N)NC(=O)[C@@H]2CCCN2C(=O)[C@H](CC(N)=O)NC(=O)[C@H](C)NC(=O)CNC(=O)CCOCCOCCOCCOCCOCCOCCOCCOCCOCCOCCOCCOC)CSSC[C@@H](C(=O)O)NC(=O)CNC(=O)[C@H](CC(C)C)NC(=O)CNC(=O)[C@H](CO)NC(=O)[C@H](CCSC)NC(=O)[C@H](CO)NC(=O)CNC1=O` [PEO12-GANPR-CNP22, K4R] ({CH3O(CH2CH2O)11CH2CH2CO}-GANPRGLSRGCFGLKLDRIGSMSGLGC-OH; disulfide 11-27; C-terminus assumed) was tested, and the “resistance to NEP cleavage/degradation (in words)” value (Recombinant human NEP) was “same half-life as wtCNP22” and the half-life at 100 uM ([1]; recombinant human neutral endopeptidase (NEP)) was 1.33 h.
`CC[C@H](C)[C@@H]1NC(=O)[C@H](CCCNC(=N)N)NC(=O)[C@H](CC(=O)O)NC(=O)[C@H](CC(C)C)NC(=O)[C@H](CCCCN)NC(=O)[C@H](CC(C)C)NC(=O)CNC(=O)[C@H](Cc2ccccc2)NC(=O)[C@@H](NC(=O)CNC(=O)[C@H](CO)NC(=O)CNC(=O)[C@H](CCC(N)=O)NC(=O)[C@@H](NC(=O)[C@H](CCSC)NC(=O)[C@H](CCCCN)NC(=O)[C@@H]2CCCN2C(=O)[C@@H](N)CO)C(C)C)CSSC[C@@H](C(=O)N[C@@H](CCCCN)C(=O)N[C@H](C(=O)N[C@@H](CC(C)C)C(=O)N[C@@H](CCCNC(=N)N)C(=O)N[C@@H](CCCNC(=N)N)C(=O)N[C@@H](Cc2c[nH]cn2)C(=O)O)C(C)C)NC(=O)CNC(=O)[C@H](CC(C)C)NC(=O)CNC(=O)[C@H](CO)NC(=O)[C@H](CCSC)NC(=O)[C@H](CO)NC(=O)CNC1=O` [CD] (H-SPKMVQGSGCFGLKLDRIGSMSGLGCKVLRRH-OH; disulfide 10-26 (inferred); N-terminus and C-terminus assumed) was tested, and the “resistance to NEP cleavage/degradation (in words)” value (Recombinant human NEP) was “much more resistant to NEP cleavage than CNP22”, the cGMP response relative to 1 uM CNP22 (%) at 0.01 µM (NPR-B; [2]) was 25% and the cGMP response relative to 1 uM CNP22 (%) at 1 µM (NPR-B; [3]) was 102%.
For “PEG20K-CNP22: CNP22 conjugated at the N-terminus to polydispersed PEG20K”, the “NEP Cleavage (t1/2, min)” value (Recombinant human NEP; pH 7) was >>160 min, the “cGMP Response rel. to 1 uM CNP22, 10 nM” value (NPR-B; [2]) was 0 and the “cGMP Response rel. to 1 uM CNP22, 1 uM” value (NPR-B; [3]) was 15.
With `CC[C@H](C)[C@@H]1NC(=O)[C@H](CCCNC(=N)N)NC(=O)[C@H](CC(=O)O)NC(=O)[C@H](CC(C)C)NC(=O)[C@H](CCCCN)NC(=O)[C@H](CC(C)C)NC(=O)CNC(=O)[C@H](Cc2ccccc2)NC(=O)[C@@H](NC(=O)CNC(=O)[C@H](CCCCN)NC(=O)[C@H](CO)NC(=O)[C@H](CC(C)C)NC(=O)CNC(=O)[C@H](C)NC(=O)[C@H](CC(N)=O)NC(=O)[C@@H]2CCCN2C(=O)[C@H](Cc2c[nH]cn2)NC(=O)[C@H](CCC(=O)O)NC(=O)[C@H](CCC(N)=O)NC(=O)[C@H](CC(C)C)NC(=O)[C@H](CC(C)C)NC(=O)[C@H](CCCNC(=N)N)NC(=O)[C@H](C)NC(=O)[C@H](Cc2c[nH]c3ccccc23)NC(=O)[C@H](C)NC(=O)[C@H](C)N)CSSC[C@@H](C(=O)O)NC(=O)CNC(=O)[C@H](CC(C)C)NC(=O)CNC(=O)[C@H](CO)NC(=O)[C@H](CCSC)NC(=O)[C@H](CO)NC(=O)CNC1=O` [CA] (H-AAWARLLQEHPNAGLSKGCFGLKLDRIGSMSGLGC-OH; disulfide 19-35 (inferred); N-terminus and C-terminus assumed) the “resistance to NEP cleavage/degradation (in words)” value (Recombinant human NEP) was “much more resistant to NEP cleavage than CNP22”, the cGMP response relative to 1 uM CNP22 (%) at 0.01 µM (NPR-B; [2]) was 24% and the cGMP response relative to 1 uM CNP22 (%) at 1 µM (NPR-B; [3]) was 76%.
For `CC[C@H](C)[C@@H]1NC(=O)[C@H](CCCNC(=N)N)NC(=O)[C@H](CC(=O)O)NC(=O)[C@H](CC(C)C)NC(=O)[C@H](CCCCN)NC(=O)[C@H](CC(C)C)NC(=O)CNC(=O)[C@H](Cc2ccccc2)N(C)C(=O)[C@@H](NC(=O)CNC(=O)[C@H](CCCCN)NC(=O)[C@H](CO)NC(=O)[C@H](CC(C)C)NC(=O)CN)CSSC[C@@H](C(=O)O)NC(=O)CNC(=O)[C@H](CC(C)C)NC(=O)CNC(=O)[C@H](CO)NC(=O)[C@H](CCSC)NC(=O)[C@H](CO)NC(=O)CNC1=O` [B], the “resistance to cleavage at the Cys6-Phe7 bond relative to wtCNP22” value (Recombinant human NEP; data not shown) was “resistance or improved resistance”, the “resistance to cleavage of the Gly8-Leu9 bond” value (Recombinant human NEP; in the presence of 1 ug/mL NEP, data not shown) was “exhibited resistance” and the cGMP response relative to 1 uM CNP22 (%) at 0.01 µM (NPR-B; NIH3T3, […]) was 2%. For the same compound, the cGMP response relative to 1 uM CNP22 (%) at 1 µM (NPR-B; NIH3T3, […]) was 38%.
For `CC[C@H](C)[C@@H]1NC(=O)[C@H](CCCNC(=N)N)NC(=O)[C@H](CC(=O)O)NC(=O)[C@H](CC(C)C)NC(=O)[C@H](CCCCN)NC(=O)[C@H](CC(C)C)NC(=O)CNC(=O)[C@H](Cc2ccccc2)NC(=O)[C@@H](NC(=O)CNC(=O)[C@H](CCCCN)NC(=O)[C@H](CO)NC(=O)[C@H](CC(C)C)NC(=O)CNC(=O)[C@H](CCCNC(=N)N)NC(=O)[C@H](C)NC(=O)[C@H](CC(N)=O)NC(=O)[C@@H]2CCCN2C(=O)[C@H](Cc2c[nH]cn2)NC(=O)[C@H](CCC(=O)O)NC(=O)[C@H](CCC(N)=O)NC(=O)[C@H](CC(C)C)NC(=O)[C@H](CC(C)C)NC(=O)[C@H](CCCNC(=N)N)NC(=O)[C@H](C)NC(=O)[C@H](Cc2c[nH]c3ccccc23)NC(=O)[C@H](C)NC(=O)[C@H](C)N)CSSC[C@@H](C(=O)O)NC(=O)CNC(=O)[C@H](CC(C)C)NC(=O)CNC(=O)[C@H](CO)NC(=O)[C@H](CCSC)NC(=O)[C@H](CO)NC(=O)CNC1=O` [CB] (H-AAWARLLQEHPNARGLSKGCFGLKLDRIGSMSGLGC-OH; disulfide 20-36 (inferred); N-terminus and C-terminus assumed), the “resistance to NEP cleavage/degradation (in words)” value (Recombinant human NEP) was “much more resistant to NEP cleavage than CNP22”, the cGMP response relative to 1 uM CNP22 (%) at 0.01 µM (NPR-B; [2]) was 36% and the cGMP response relative to 1 uM CNP22 (%) at 1 µM (NPR-B; [3]) was 84%.
